Results from patent publication US10618937B2, “Method of treating Alzheimer's disease” (INDUSTRY-ACADEMIC COOPERATION FOUNDATION GYEONGSANG …, priority 2016, dated 2020).

Key:
[1] = tested on: APP/PS1 model mice; experiment: Morris water maze test in APP/PS1 model mice; type: in vivo; settings: APP/PS1 model mice treated, compared to APP/PS1 model mice
Description: (§1) Male C57BL/6J wild type mice and double transgenic B6.Cg-Tg (APPswe, PSENdE9) 85Dbo Mmjax (APP/PS1) AD-model mice were obtained from Jackson Laboratories (Bar Harbor, Me., USA). The brains of the double transfected mice express Swedish mutation-containing chimeric mouse-human amyloid precursor protein (Mo/HuAPP695swe) and mutant human presenilin 1 protein (PS1-dE9). The mice were fed with an unlimited supply of food and water at an animal breeding ground of a university at a temperature of 23° C., at the relative humidity of 60±10% and in the black and light cycle of 12 h/12 h. […]
The Morris Underwater Maze Test System was constructed as a circular water tank with a diameter of 100 cm and a height of 40 cm containing 15.5 cm depth of water (temperature of 23±1° C.) which was opaque with white ink added. […] The delay time for escaping from the water maze (the time to find the hidden escape platform) was calculated for each trial. […] For the probe experiment, the platform was removed, each mouse was allowed to freely swim for 60 seconds, the amount of time the mouse spent in the target quadrant was measured, and the number of platform positions the mouse passed by (where the platform was located during the hidden platform training). […] All data were recorded by using video-tracking software (SMART, Panlab Harward Apparatus, Bioscience Company, Holliston, Mass., USA).

[2] = tested on: APP/PS1 model mice; experiment: Y-maze test; type: in vivo; settings: 45 days after IP administration
Description: as §1, with “h. When the mice reached 10 months of age, they were transferred to the injection and behavior observation room for 1 week for purification. The maintenance and treatment for mice were performed according to the guidelines of the Animal Ethics Committee (IACUC) issued by Department of Biology, Division of Applied Life Science of Gyeongsang National University in Korea. Experiments according to the present disclosure were conducted according to the guidelines approved by the guidelines of the Animal Ethics Committee (IACUC) issued by Department of Biology, Division of Applied Life Science of Gyeongsang National University in Korea (approval ID: 125).” for “h.”
Alteration behavior ratio (%) was calculated as [set of overlapping triplets (consecutive entry into 3 different arms)/total entry−2]×100. […]

[3] = tested on: APP-transfected SH-SY5Y cells; experiment: MTT assay, cell viability of APP-transfected SH-SY5Y cells; type: cell-based, human; settings: 0.5, 1, 5, 10 and 20 μM, 4 hours, compared to the untreated APP group
Description: The human APPswe/ind gene under the transcriptional control of the SV40 promoter/enhancer linked to the pCAX mammalian expression vector was obtained from addgene; The gene was deposited in the APP reservoir by Dennis Solkoe (plasmid 30145). The plasmid was amplified by DH5alpha strain in LB medium containing 50 μg/ml of ampicillin. The plasmid was purified by using a Qiagen plasmid mini kit (Cat #12143) and digested with EcoRV restriction enzyme and confirmed. The human neuroblastoma cell line SHYSY5Y used in the present in vitro experiments was cultured in DMEM medium containing 10% fetal bovine serum and 1% penicillin-streptomycin antibiotic (stock solutions concentrations of 10,000 U and 10,000 μg/ml, respectively)).
SH-SY5Y cells and HT-22 cells were inoculated into a culture flask containing the medium, and cultured until reaching the confluency of 70% to 75%. The pCAX vector with the APPswe/ind gene was transfected for 48 hours by using Lipofectamine 3000 (Life technologies) according to the manufacturers instructions.
APPswe/ind transfected SH-SY5Y cells were treated with novel peptide for 4 hours, followed by 3-[4, 5-dimethylthiazol-2-yl]-2,5-diphenyl tetrazolium bromide (MTT) analysis and Western blot analysis.
MTT assay was performed to measure the survival rate of cells treated with various concentrations of adiponectin receptor-activating novel peptide (5AA1). The cells were inoculated at 1×10^5 cells/well in a 96-well plate containing 200 μl of Dulbecco's modified Eagle's medium (DMEM). After 70% of cell confluence, SH-SY5Y cells were treated with 0.5 μM, 1 μM, 5 μM, 10 μM, and 20 μM of adiponectin receptor-activating novel peptide, and then cultured for 4 hours. At the end of the treatment, MTT (5 mg/ml in PBS) was added to each well, and the plate was cultured at a temperature of 37° C. for 4 hours. The formazan dissolved in dimethyl sulfoxide (DMSO) was added to the well and the plate was stirred in the agitator for 10 to 20 minutes. Then, the absorbance was measured at a wavelength of 550 nm to 570 nm (L1) and 620 nm to 650 nm (L2) by using a scanning microplate reader.
The L2 absorbance was measured for cell residuals and well imperfections, and the corrected absorbance (Abs.=L1−L2) of each well was calculated from 100× the absorbance of treated well/absorbance of the control well, and was used to measure the cell viability.

RGPCG (adiponectin receptor-activating peptide) [5AA1]
time for staying where the platform was located (probe test) [1]: increased | spontaneous alteration [2]: restored | cell viability [3]: concentration-dependently increased
